From patent US20140135310A1, “SULPHONAMIDE DERIVATIVES OF ALICYCLIC AMINES FOR THE TREATMENT OF CENTRAL NERVOUS SYSTEM DISEASES” (Adamed Sp. z o.o., priority 2011, published 2014) come the findings set out here.

Structures are written as SMILES.

The target in test [1] is dopaminergic receptors D2 (Homo sapiens, UniProt P14416). Nature of the test: Radioligand binding assay, dopaminergic D2 receptors. The following applies: binding assay, test compound 1×10^−6 M. The method in brief:
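Competition binding with scintillation counting of bound radioligand; specific binding taken as total minus non-specific binding measured with excess unlabelled ligand. IC50 obtained by Hill-equation non-linear regression of replicate-mean curves, then converted to Ki via Cheng–Prusoff using radioligand concentration and Scatchard-derived KD.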

In test [2] the target is dopaminergic receptors D3 (Homo sapiens, UniProt P35462). Nature of the test: Radioligand binding assay, dopaminergic D3 receptors. The settings on record: test compound 1×10^−6 M. In outline: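 Competition radioligand binding at human D2, D3 and D4.4 receptors, detected by scintillation counting; nonspecific binding defined with excess unlabelled ligand. Results as percent inhibition of control specific binding; IC50 by Hill-equation nonlinear regression; Ki via Cheng-Prusoff, with radioligand KD from Scatchard plot.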

For test [3], the target named is T1, 5-HT1A receptor (rat hippocampus) (Rattus norvegicus, UniProt P19327).
T1 construct: hippocampus; from tissue; host or cells: rat hippocampus
T1 sequence (P19327 1-422): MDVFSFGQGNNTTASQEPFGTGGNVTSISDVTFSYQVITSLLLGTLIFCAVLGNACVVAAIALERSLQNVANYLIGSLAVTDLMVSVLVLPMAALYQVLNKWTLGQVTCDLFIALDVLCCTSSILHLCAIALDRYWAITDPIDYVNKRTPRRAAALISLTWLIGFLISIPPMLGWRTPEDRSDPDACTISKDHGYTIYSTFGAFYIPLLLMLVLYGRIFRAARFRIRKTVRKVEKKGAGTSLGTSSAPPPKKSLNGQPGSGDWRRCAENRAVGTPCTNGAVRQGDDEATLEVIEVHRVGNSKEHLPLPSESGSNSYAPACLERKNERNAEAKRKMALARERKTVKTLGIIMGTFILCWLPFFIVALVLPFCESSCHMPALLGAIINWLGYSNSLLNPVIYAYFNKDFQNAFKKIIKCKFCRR
Description: Radioligand binding assay, serotoninergic 5-HT1A receptors. The settings on record: binding assay result in %, Table 5a.

The next test concerns the target T2, 5-HT2A receptor (Homo sapiens, UniProt P28223).
T2 construct: purchased PerkinElmer
Nature of the test: Radioligand binding assay, serotoninergic 5-HT2A receptors. The settings on record: binding assay result in %, Table 5a. The method in brief: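 Radioligand competition binding with scintillation counting; nonspecific binding defined by excess unlabelled ligand. Data as percent inhibition of control specific binding. IC50 by Hill-equation fit of competition curves; Ki by Cheng-Prusoff, with radioligand Kd from Scatchard plot.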

In the next test the target is T3, 5-HT2C receptor (Homo sapiens, UniProt P28335).
T3 construct: expressed in transfected cells; host or cells: HEK-293 cells
T3 sequence (P28335 33-458): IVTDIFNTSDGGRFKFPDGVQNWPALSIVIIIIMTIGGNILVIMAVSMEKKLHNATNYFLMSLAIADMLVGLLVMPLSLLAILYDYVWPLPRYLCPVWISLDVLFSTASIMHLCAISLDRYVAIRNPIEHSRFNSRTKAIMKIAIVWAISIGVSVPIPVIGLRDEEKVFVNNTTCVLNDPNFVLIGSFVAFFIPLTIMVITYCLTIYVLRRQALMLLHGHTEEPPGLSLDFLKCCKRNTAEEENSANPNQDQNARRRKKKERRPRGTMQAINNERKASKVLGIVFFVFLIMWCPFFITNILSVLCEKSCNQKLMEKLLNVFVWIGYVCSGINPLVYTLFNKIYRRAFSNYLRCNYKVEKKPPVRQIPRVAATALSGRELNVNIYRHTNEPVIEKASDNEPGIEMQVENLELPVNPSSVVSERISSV
Description: Radioligand binding assay, serotoninergic 5-HT2C receptors. The settings on record: test compound 1×10^−6 M. From the text: (§1) The specific ligand binding to the receptors is defined as the difference between the total binding and the non-specific binding determined in the presence of the excess of unlabelled ligand.
(§2) The results are expressed as a percent of control specific binding ((measured specific binding/control specific binding)×100) and as a percent inhibition of control specific binding (100−((measured specific binding/control specific binding)×100)) obtained in the presence of the test compounds. The specific ligand binding to the receptors is defined as the difference between the total binding and the nonspecific binding determined in the presence of an excess of unlabelled ligand. Scintillation counting was the method of detection of ligand binding. The IC50 values (concentration causing a half-maximal inhibition of control specific binding) were determined by non-linear regression analysis of the competition curves generated with mean replicate values using Hill equation curve fitting (Y=D+[(A−D)/(1+(C/C50)nH)], where Y=specific binding, D=minimum specific binding, A=maximum specific binding, C=compound concentration, C50=IC50, and nH=slope factor). This analysis was performed using a software developed at Cerep (Hill software) and validated by comparison with data generated by the commercial software SigmaPlot® 4.0 for Windows® (© 1997 by SPSS Inc.). The inhibition constants (Ki) were calculated using the Cheng Prusoff equation (Ki=IC50/(1+(L/KD)), where L=concentration of radioligand in the assay, and KD=affinity of the radioligand for the receptor). A scatchard plot was used to determine the Kd.
Experimental conditions for tests are given in Table 4, and results of tests for representative compounds of the invention are given in Table 5a and 5b (receptors 5-HT1A, 5-HT2A, 5-HT6 and 5-HT7) and in Table 6 (receptors 5-HT2C).

Test [4] concerns α1 adrenergic receptors (rat cerebral cortex). Description: Radioligand binding assay, adrenergic α1 receptors. The settings on record: test compound 1×10^−6 M. In outline: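 Values derive from radioligand displacement, with non-specific binding defined by excess cold ligand and detection by scintillation. Hill-fit IC50s were converted to Ki via Cheng-Prusoff using Scatchard-derived Kd; percent inhibition of control specific binding also reported.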

The target in a further test is T4, M3 muscarinic receptors (Homo sapiens, UniProt P20309).
T4 construct: expressed in transfected cells; host or cells: CHO cells
Description: Radioligand binding assay, muscarinic M3 receptors. The following applies: test compound 1×10^−6 M.
Source text: as §1, §2
Experimental conditions for tests are given in Table 10, and results of tests for representative compounds are given in Table 11.

Test [5] addresses T5, serotonin transporter (SERT) (Homo sapiens, UniProt P31645).
T5 construct: expressed in transfected cells; host or cells: CHO cells
Description: Radioligand binding assay, serotonin transporter (SERT). The following applies: binding assay, test compound 1×10^−6 M. The method in brief: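 Radioligand competition binding with scintillation detection; specific binding is total minus binding under excess unlabelled ligand. Reported as % of control specific binding or % inhibition; IC50 from Hill-equation non-linear regression of competition curves, and Ki via Cheng-Prusoff using radioligand concentration and Scatchard-derived KD.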

The subject of the next test is σ receptors. Description: Radioligand binding assay, σ receptors. The settings on record: rat cerebral cortex, [3H]DTG 8 nM.
Source text: as §1
as §2, with “This analysis was performed using a software developed at Cerep (Hill software) and validated by comparison with data generated by the commercial software SigmaPlot® 4.0 for Windows® (© 1997 by SPSS Inc.).” left out

Test [6] addresses T6, H1 histaminergic receptors (Homo sapiens, UniProt P35367).
T6 construct: expressed in transfected cells; host or cells: HEK-293 cells
Description: Radioligand binding assay, histaminergic H1 receptors. The settings on record: human recombinant (HEK-293 cells), [3H]pyrilamine 1 nM.
Source text: as §1, §2
Experimental conditions for tests are given in Table 14, and results of tests for representative compounds are presented in Table 15.

T4 sequence (P20309 whole entry): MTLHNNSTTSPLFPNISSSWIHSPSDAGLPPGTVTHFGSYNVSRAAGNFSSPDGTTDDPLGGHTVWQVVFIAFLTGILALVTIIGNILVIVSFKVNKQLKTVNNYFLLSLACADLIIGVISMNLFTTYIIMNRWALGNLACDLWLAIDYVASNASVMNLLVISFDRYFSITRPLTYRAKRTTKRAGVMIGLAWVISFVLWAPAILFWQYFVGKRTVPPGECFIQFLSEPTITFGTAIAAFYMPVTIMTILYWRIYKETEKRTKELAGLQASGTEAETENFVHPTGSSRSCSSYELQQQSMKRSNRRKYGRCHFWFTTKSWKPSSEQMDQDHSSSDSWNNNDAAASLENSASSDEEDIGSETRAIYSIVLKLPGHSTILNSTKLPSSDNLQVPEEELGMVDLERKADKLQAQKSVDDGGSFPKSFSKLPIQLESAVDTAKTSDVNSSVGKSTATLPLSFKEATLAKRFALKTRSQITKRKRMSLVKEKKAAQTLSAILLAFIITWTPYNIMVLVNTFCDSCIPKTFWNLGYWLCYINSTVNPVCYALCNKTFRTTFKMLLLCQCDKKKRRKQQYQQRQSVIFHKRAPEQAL
T6 sequence (P35367 whole entry): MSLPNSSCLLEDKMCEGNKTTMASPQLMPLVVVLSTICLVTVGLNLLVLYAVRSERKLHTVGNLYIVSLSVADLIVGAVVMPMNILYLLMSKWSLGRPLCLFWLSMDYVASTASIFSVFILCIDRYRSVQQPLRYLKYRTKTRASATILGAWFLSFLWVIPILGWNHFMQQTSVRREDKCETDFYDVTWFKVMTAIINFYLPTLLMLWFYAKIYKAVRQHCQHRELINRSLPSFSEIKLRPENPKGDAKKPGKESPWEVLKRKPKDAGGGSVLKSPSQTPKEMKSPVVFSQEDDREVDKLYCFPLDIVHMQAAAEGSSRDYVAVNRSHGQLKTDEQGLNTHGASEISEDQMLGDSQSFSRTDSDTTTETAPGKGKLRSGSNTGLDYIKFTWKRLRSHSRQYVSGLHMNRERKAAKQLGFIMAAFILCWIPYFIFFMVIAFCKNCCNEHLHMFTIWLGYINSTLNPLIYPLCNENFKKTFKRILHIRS
T5 sequence (P31645 whole entry): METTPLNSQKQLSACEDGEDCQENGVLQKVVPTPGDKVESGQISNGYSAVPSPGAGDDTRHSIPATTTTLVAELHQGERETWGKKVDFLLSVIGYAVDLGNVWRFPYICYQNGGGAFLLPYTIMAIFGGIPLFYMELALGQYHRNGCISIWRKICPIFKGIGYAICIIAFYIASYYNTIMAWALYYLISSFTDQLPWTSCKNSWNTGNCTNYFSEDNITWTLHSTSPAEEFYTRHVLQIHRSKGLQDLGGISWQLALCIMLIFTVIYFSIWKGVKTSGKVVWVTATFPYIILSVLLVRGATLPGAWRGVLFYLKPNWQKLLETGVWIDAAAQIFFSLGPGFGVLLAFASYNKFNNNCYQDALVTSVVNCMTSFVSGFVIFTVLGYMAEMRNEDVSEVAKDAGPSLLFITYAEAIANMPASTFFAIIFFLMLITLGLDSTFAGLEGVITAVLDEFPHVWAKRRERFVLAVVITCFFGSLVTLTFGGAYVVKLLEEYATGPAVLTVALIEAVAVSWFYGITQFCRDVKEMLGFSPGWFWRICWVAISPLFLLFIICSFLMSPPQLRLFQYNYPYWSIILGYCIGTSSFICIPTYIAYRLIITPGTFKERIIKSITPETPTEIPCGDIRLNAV
Chain of dopaminergic receptors D2 (P14416 whole entry): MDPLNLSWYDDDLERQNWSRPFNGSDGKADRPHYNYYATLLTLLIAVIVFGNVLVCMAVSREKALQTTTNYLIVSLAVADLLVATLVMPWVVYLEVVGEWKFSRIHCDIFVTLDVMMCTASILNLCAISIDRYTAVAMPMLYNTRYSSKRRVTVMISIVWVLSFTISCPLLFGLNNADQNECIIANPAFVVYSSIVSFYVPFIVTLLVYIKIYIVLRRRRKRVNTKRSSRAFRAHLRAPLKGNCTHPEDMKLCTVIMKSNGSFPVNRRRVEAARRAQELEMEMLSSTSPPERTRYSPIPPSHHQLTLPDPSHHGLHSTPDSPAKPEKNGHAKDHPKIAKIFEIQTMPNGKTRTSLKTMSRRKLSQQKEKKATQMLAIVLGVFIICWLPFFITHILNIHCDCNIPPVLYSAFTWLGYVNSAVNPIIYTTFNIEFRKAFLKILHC
T2 sequence (P28223 whole entry): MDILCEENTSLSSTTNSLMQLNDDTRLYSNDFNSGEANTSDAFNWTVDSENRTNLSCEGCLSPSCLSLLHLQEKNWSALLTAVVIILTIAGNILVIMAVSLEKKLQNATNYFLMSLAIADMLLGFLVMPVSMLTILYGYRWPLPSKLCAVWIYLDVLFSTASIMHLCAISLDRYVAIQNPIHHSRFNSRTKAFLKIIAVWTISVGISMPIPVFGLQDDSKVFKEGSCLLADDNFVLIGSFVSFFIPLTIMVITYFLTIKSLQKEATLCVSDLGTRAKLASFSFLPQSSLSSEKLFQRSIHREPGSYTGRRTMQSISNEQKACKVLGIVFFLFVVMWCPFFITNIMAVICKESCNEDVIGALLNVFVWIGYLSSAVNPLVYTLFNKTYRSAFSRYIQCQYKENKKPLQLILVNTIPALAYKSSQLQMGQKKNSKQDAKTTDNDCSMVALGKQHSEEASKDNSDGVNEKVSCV
Chain of dopaminergic receptors D3 (P35462 whole entry): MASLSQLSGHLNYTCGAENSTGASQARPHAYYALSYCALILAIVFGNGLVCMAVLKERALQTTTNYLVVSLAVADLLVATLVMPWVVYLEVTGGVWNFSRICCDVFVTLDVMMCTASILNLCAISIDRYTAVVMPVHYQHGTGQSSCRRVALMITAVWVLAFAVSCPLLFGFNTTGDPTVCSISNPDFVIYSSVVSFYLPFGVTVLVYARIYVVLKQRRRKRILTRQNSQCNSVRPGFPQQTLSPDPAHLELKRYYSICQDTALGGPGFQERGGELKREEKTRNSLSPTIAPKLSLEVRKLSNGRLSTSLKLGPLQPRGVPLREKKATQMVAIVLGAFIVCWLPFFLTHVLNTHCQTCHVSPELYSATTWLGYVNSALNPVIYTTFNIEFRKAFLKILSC

For the molecule `O=S(=O)(NC1CCN(CCOc2nsc3ccccc23)C1)c1ccc2ccccc2c1` (stereo not drawn) [Compound 39, N-[1-[2-(1,2-Benzothiazol-3-yloxy)ethyl]pyrrolidin-3-yl]naphthalene-2-sulphonamide], the inhibition (as a rule, the change of the read-out against control, counted positive when it falls) at 1 µM amounted to 86% in test [1]; 95% in [2]; 99% in test [3]; 99% at 5-HT2A receptor; 74% on 5-HT2C receptor; 19% at M3 muscarinic receptors. Moreover, the inhibition at 1 µM in test [5] was 29%. The “α1 [%]” value in test [4] was 29%. Further, the “σ [%]” value in the test on σ receptors is listed as 54%.

Turning to `O=S(=O)(NC1CN(CCOc2cccc3[nH]ccc23)C1)c1cccc2ccccc12` [Compound 49, N-[1-[2-(1H-Indol-4-yloxy)ethyl]azetidin-3-yl]naphthalene-1-sulphonamide], the inhibition at 1 µM in test [1] worked out at 99%; in test [2], 106%; in test [3] it was 100%; on 5-HT2A receptor it was 82%; at 5-HT2C receptor it was 59%; at M3 muscarinic receptors, 11%. Also, in test [5], the inhibition at 1 µM is 41%. Moreover, the “α1 [%]” value in [4] is 89%. Moreover, the “σ [%]” value in the test on σ receptors turned out to be 50%.

With `O=S(=O)(NCC1CCN(CCOc2cccc3c2OCCO3)C1)c1cccc(O)c1` (stereo not drawn) [Compound 303, N-[[1-[2-(2,3-Dihydro-1,4-benzodioxin-5-yloxy)ethyl]pyrrolidin-3-yl]-methyl]-3-hydroxy-benzenesulphonamide], the inhibition at 1 µM in test [1] was determined as 79%; in test [2] it was 52%; in test [3] it was 96%; on 5-HT2A receptor, 96%; at 5-HT2C receptor it was 47%; on M3 muscarinic receptors, 9%. The inhibition at 1 µM amounted to 73% in test [5] and 68% in test [6]. Moreover, the “α1 [%]” value in test [4] was 89%.

For the molecule `O=S(=O)(NCC1CCN(CCOc2cccc3c2OCCO3)C1)c1ccc(Br)cc1` (stereo not drawn) [Compound 305, 4-Bromo-N-[[1-[2-(2,3-dihydro-1,4-benzodioxin-5-yloxy)ethyl]pyrrolidin-3-yl]methyl]benzenesulphonamide], the inhibition at 1 µM stood at 57% in test [1]; 48% in [2]; 101% in test [3]; 93% on 5-HT2A receptor; 59% on 5-HT2C receptor; 11% at M3 muscarinic receptors. Moreover, the inhibition at 1 µM in test [5] was determined as 94%; in [6], 54%. Further, in test [4], the “α1 [%]” value was found to be 84%.

As for `O=S(=O)(NCC1CCN(CCOc2cccc3c2OCCO3)C1)c1ccc2c(c1)CCO2` (stereo not drawn) [Compound 306, N-[[1-[2-(2,3-Dihydro-1,4-benzodioxin-5-yloxy)ethyl]pyrrolidin-3-yl]-methyl]-2,3-dihydrobenzofuran-5-sulphonamide], the inhibition at 1 µM came out at 51% in test [1]; 26% in [2]; 99% in test [3]; 81% at 5-HT2A receptor; 36% on 5-HT2C receptor; 12% at M3 muscarinic receptors. The figures for the inhibition at 1 µM in test [5] and in [6] were 90% and 57%, respectively. Also, the “α1 [%]” value in test [4] came to 90%.

As to `O=S(=O)(NCC1CCN(CCOc2cccc3c2OCCO3)C1)c1ccc(F)c(Cl)c1` (stereo not drawn) [Compound 317, 3-Chloro-N-[[1-[2-(2,3-dihydro-1,4-benzodioxin-5-yloxy)ethyl]pyrrolidin-3-yl]methyl]-4-fluorobenzenesulphonamide], the inhibition at 1 µM in [1] came to 53%; in test [2], 49%; in [3], 100%; on 5-HT2A receptor, 72%; on 5-HT2C receptor it was 45%; on M3 muscarinic receptors it was 8%. The inhibition at 1 µM in test [5] was determined as 63%; in test [6] it was 47%. Moreover, the “α1 [%]” value in [4] is 84%.
